Active and inactive are the calls of the source.
Legend:
[1] = target: T1, Low molecular weight phosphotyrosine protein phosphatase (Homo sapiens, UniProt P24666); assay type: functional; conditions: read-out: IC50_Mean;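 further: Dose-response confirmation assay measuring inhibition of LMPTP enzyme activity by fluorescence intensity read-out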
T1 sequence (P24666 whole entry): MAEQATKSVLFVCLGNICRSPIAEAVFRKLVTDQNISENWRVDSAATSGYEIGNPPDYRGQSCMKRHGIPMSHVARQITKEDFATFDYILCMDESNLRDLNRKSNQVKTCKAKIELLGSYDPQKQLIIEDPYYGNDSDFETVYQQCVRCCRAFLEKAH

[2] = cells; assay type: functional, cell-based
[3] = target: T2, Nuclear receptor subfamily 0 group B member 1 (Homo sapiens, UniProt P51843); assay type: functional, cell-based;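 further: HEK293T cells transfected with SF-1 and DAX-1 plus StAR promoter luciferase reporter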
T2 sequence (P51843 whole entry): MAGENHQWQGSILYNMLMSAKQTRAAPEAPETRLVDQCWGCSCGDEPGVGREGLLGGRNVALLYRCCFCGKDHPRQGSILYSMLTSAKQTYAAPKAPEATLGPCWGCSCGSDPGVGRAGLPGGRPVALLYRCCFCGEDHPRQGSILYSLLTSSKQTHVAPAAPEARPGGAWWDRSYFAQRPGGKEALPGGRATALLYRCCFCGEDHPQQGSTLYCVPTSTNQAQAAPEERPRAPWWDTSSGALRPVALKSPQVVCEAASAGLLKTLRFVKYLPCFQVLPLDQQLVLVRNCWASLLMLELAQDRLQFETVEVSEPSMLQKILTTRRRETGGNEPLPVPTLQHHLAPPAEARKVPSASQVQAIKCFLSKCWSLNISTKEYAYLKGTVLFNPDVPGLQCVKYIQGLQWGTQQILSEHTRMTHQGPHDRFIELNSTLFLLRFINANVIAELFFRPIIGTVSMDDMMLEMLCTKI

[4] = target: T3, Interleukin-8 (Homo sapiens, UniProt P10145); assay: Dose Response confirmation of uHTS small molecule hits for cystic fibrosis induced NFkb Inhibitors in a TNFa-induced IL8 counterscreen.; assay type: functional; conditions: read-out: IC50_Mean
T3 sequence (P10145 whole entry): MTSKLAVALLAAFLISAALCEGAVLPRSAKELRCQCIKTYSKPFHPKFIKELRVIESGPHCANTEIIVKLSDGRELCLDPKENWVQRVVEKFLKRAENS

[5] = target: T3, Interleukin-8; assay: Dose Response confirmation of uHTS small molecule hits for cystic fibrosis induced NFkb Inhibitors in a PAF-induced IL8 counterscreen.; assay type: functional; conditions: read-out: IC50_Mean
[6] = intracellular Trypanosoma cruzi inhibitors in host cells – cell-based, plate reader, cherry-pick samples, set 3, dose response (AID 651818); assay type: functional;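 further: compounds incubated with infected cells for about four days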
[7] = test system: Vero; assay: Vero cell toxicity, dose response, cytotoxicity control, plate reader, cherry-pick samples (AID 687020); assay type: functional, cell-based; conditions: Chlorocebus sabaeus
[8] = target: Hepatocyte nuclear factor 4-alpha (Homo sapiens, UniProt P41235); assay type: functional, cell-based;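 further: biochemical luminescence-based dose-response counterscreen measuring inhibition of HNF4 dimerization, run alongside a screen for blockers of ABHD5–perilipin-5 interaction; split luciferase complementation of HNF4 fusion proteins in cell lysate measuring dimerization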
Sequence of Hepatocyte nuclear factor 4-alpha (P41235 whole entry, the tested form may be a part): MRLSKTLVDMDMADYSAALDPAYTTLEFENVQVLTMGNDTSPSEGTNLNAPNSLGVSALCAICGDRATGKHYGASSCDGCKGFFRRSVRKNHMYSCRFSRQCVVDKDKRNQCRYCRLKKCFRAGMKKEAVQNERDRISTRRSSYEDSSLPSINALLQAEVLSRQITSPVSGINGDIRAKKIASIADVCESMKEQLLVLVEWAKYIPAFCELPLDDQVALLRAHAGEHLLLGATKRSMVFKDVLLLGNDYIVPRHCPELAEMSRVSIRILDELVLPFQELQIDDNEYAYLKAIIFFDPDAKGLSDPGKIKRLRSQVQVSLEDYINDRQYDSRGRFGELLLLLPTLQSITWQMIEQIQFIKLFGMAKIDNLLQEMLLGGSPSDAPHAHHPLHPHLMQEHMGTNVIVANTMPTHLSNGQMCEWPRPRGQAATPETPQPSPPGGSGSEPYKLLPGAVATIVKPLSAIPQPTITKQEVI

[9] = target: Protein Wnt-3a (Mus musculus, UniProt P27467); assay: Wnt3a-driven reporter signaling inhibition, dose response, selectivity assay for Gli-SUFU antagonist project, Wnt-LIGHT cells, luminescence (AID 651570); assay type: functional; conditions: read-out: IC50_Mean;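 further: Wnt-LIGHT reporter cells stimulated with conditioned medium from Wnt3a-producing cells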
[10] = target: Arf-GAP with SH3 domain, ANK repeat and PH domain-containing protein 1 (Homo sapiens, UniProt Q9ULH1); assay type: functional;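 further: biochemical fluorescence polarization dose–response screen measuring inhibition of ASAP1; ASAP1 GAP domain stimulating GTP hydrolysis by truncated human ARF1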
Sequence of Arf-GAP with SH3 domain, ANK repeat and PH domain-containing protein 1 (Q9ULH1 whole entry, the tested form may be a part): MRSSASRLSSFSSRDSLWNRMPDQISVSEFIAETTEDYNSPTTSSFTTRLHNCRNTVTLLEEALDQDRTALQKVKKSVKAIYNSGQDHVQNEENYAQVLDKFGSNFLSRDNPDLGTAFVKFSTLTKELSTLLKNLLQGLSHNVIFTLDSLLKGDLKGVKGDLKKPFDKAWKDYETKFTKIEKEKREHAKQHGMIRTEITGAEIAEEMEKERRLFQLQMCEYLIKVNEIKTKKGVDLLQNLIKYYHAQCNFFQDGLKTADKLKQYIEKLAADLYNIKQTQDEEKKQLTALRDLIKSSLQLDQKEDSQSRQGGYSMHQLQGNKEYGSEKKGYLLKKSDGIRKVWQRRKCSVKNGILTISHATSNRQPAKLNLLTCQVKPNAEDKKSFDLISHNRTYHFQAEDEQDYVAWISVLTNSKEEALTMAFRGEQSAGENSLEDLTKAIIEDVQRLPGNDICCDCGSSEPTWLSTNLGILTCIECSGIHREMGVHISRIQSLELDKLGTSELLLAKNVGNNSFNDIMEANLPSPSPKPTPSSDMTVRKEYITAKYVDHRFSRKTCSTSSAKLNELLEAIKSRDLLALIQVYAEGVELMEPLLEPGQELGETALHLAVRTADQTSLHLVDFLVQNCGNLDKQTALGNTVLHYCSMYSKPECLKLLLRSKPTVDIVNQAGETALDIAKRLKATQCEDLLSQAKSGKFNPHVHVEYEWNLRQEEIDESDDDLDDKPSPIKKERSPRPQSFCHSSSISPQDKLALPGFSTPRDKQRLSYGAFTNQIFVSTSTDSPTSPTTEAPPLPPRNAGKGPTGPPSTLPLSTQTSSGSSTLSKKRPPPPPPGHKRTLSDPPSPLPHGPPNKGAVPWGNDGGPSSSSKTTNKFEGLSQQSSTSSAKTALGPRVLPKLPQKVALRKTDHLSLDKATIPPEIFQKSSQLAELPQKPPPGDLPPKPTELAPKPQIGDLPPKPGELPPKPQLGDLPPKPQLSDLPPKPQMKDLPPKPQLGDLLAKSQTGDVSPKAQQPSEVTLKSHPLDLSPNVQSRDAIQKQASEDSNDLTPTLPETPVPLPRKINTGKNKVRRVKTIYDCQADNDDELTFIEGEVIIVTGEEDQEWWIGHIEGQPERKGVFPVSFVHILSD

[11] = target: T4, ATP-dependent translocase ABCB1 (Homo sapiens, UniProt P08183); assay: ABCG2 efflux pump inhibitor potency, dose response, Ig-MXP3 cells, JC-1, flow cytometry, set 2 (AID 504566); assay type: functional; conditions: read-out: EC50_MICROM_;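 further: flow cytometry median green fluorescence of retained JC-1 dye; potency of efflux pump inhibition measured as rising substrate retention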
T4 sequence (P08183 whole entry): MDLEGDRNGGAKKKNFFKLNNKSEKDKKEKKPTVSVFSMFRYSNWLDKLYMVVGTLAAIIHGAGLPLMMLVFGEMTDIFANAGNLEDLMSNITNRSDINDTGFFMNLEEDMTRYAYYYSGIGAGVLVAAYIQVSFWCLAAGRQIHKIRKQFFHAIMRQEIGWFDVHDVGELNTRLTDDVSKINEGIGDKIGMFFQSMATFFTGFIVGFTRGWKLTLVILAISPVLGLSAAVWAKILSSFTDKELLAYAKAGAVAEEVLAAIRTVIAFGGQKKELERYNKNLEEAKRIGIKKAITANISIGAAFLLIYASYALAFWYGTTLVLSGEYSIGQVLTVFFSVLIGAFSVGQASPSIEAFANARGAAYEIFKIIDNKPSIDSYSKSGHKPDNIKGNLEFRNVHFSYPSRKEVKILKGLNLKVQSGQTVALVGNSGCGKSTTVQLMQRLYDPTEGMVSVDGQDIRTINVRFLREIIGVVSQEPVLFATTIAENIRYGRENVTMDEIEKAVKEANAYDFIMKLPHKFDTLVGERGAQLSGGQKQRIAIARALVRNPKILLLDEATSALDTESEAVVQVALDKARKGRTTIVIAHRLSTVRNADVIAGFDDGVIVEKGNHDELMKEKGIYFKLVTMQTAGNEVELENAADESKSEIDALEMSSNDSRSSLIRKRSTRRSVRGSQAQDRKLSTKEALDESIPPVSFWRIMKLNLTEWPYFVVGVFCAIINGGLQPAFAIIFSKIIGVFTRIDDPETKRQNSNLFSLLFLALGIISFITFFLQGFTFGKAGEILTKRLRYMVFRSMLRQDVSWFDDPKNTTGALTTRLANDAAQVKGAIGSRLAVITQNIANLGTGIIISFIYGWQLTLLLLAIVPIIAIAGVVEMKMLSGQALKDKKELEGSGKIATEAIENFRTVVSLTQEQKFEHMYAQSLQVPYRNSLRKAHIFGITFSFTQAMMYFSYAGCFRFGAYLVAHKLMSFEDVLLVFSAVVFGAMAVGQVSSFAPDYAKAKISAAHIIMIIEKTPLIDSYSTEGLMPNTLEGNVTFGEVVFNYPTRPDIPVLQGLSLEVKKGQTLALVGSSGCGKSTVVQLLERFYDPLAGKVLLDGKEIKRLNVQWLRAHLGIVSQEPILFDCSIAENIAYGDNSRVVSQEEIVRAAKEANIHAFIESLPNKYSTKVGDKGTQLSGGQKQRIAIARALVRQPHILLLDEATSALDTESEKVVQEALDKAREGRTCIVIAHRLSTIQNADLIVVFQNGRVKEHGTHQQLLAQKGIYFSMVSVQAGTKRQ

[12] = target: T4, ATP-dependent translocase ABCB1; assay: ABCB1 efflux inhibitor potency, dose response, Jurkat-DNR cells, JC-1, flow cytometry, set 2 (AID 504569); assay type: functional; conditions: read-out: EC50_MICROM_;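 further: potency of pump inhibitors that raise cellular JC-1 green fluorescence up to the nicardipine level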
[13] = target: T5, Small ubiquitin-related modifier 1 (Homo sapiens, UniProt P63165); assay: inhibitors of SUMO1 peptide binding, dose response, biochemical, fluorescence polarization, uHTS hits (AID 624382); assay type: functional; conditions: read-out: IC50_Mean
T5 sequence (P63165 whole entry): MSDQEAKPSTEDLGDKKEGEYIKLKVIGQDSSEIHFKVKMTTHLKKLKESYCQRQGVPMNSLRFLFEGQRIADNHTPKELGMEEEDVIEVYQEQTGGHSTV

[14] = target: T5, Small ubiquitin-related modifier 1; assay: inhibitors of SUMO1 partner interactions, dose response, biochemical, FRET (AID 624383); assay type: functional; conditions: read-out: IC50_Mean
[15] = target: T6, Aminopeptidase N (Plasmodium falciparum FcB1/Columbia, UniProt O96935); assay: P. falciparum M1AAP inhibitors, biochemical, fluorogenic H-Leu-NHMec substrate, 1536-well (AID 1445); set-up: species or system Plasmodium falciparum 3D7, 3D7
T6 sequence (O96935 whole entry): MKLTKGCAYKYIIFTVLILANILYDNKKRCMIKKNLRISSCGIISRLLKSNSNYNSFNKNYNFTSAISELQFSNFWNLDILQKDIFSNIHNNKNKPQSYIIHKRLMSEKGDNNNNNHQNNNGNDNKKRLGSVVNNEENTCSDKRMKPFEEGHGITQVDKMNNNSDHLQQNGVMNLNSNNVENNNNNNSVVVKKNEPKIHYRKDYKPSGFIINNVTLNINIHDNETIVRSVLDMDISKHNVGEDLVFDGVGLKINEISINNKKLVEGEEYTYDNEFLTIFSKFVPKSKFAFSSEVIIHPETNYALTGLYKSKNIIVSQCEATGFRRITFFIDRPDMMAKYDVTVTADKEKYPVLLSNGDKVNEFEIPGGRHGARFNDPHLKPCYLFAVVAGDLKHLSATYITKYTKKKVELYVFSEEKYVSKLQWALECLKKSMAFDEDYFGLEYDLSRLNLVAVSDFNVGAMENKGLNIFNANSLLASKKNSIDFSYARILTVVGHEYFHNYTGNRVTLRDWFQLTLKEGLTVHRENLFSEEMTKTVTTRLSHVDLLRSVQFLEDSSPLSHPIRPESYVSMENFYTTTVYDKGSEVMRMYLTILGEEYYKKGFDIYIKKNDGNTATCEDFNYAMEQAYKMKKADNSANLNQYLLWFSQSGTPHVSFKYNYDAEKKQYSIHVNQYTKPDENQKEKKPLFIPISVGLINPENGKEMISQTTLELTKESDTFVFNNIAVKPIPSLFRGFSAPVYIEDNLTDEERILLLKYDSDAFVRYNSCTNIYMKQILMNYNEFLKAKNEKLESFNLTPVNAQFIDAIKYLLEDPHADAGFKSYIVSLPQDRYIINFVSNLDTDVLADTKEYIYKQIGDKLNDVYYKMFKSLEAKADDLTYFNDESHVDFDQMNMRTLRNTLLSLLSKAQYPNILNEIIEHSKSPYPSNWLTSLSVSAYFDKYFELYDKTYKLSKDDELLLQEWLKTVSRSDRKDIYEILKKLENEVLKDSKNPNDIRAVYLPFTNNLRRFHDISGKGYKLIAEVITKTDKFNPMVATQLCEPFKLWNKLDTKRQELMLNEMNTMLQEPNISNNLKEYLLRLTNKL

[16] = target: T7, Caspase-6 (Homo sapiens, UniProt P55212); assay: human caspase-6 inhibitors, dose response, biochemical, VEID-R110 fluorescence, cherry-pick (AID 720632)
T7 sequence (P55212 whole entry): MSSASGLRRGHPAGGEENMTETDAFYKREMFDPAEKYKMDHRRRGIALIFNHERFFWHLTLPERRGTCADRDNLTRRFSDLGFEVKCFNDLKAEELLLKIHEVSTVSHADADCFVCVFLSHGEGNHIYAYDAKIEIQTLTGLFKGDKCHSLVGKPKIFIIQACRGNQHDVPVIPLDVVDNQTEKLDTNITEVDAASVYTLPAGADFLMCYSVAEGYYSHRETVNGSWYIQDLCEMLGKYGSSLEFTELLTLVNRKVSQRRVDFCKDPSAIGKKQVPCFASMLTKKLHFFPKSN

[17] = target: Caspase-7 (Homo sapiens, UniProt P55210); assay: human caspase-7 inhibitors, dose response, selectivity assay for caspase-6 inhibitor project, biochemical, DEVD-R110 fluorescence, cherry-pick (AID 743295)
Sequence of Caspase-7 (P55210 24-198 limits assumed): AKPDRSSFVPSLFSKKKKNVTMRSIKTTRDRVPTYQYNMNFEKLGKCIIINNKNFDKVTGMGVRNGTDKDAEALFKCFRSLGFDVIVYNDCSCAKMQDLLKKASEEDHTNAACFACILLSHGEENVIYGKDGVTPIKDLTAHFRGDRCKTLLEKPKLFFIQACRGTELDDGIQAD
Sequence of Caspase-7 (P55210 207-303 limits assumed): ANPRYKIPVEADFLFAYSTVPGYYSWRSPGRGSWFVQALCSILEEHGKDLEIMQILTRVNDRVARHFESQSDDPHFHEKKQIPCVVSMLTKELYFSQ

[18] = target: Genome polyprotein (dengue virus type 2, UniProt P29990); assay: Dengue-2 NS5 methyltransferase inhibitors, primary screen, biochemical, confirmation dose response (AID 588689); assay type: functional
[19] = target: Caspase-8 (Homo sapiens, UniProt Q14790); assay: caspase-8 inhibition counter-screen, dose response, selectivity assay for caspase-6 inhibitor project, biochemical, Z-IETD-R110 fluorescence, cherry-picked samples (AID 743294)
Sequence of Caspase-8 (Q14790 217-374 limits assumed): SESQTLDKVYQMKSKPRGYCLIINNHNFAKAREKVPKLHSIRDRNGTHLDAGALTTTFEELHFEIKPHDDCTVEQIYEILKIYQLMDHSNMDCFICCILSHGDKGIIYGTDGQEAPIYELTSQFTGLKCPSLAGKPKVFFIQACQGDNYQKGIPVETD
Sequence of Caspase-8 (Q14790 385-479 limits assumed): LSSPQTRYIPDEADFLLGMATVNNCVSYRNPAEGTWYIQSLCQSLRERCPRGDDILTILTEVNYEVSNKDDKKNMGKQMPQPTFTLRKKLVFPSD

[20] = cytotoxicity in HEK293 cells, dose response, cytotoxicity control, cell-based, plate reader, cherry-pick (AID 651899); assay type: functional
[21] = target: T8, Adenosylmethionine-8-amino-7-oxononanoate aminotransferase (Mycobacterium tuberculosis, UniProt P9WQ81); assay: Mycobacterium tuberculosis BioA enzyme inhibitor Measured in Biochemical System Using Plate Reader - 2163-02_Inhibitor_Dose_CherryPick_Activity.; assay type: functional, Mycobacterium tuberculosis UT205
T8 sequence (P9WQ81 whole entry): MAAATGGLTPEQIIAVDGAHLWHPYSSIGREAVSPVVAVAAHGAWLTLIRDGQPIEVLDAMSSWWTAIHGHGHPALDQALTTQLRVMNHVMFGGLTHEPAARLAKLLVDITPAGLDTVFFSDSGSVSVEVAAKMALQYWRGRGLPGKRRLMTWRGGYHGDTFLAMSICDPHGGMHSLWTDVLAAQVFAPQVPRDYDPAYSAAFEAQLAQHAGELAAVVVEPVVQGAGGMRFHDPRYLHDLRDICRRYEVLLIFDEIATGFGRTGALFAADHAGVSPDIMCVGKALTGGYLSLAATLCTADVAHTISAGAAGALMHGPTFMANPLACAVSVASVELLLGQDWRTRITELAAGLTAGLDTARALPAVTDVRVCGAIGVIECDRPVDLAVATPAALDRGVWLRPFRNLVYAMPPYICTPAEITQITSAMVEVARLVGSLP

[22] = inhibitors of SNCA 5'UTR-driven reporter translation, confirmation, H4 neuroglioma cells, luminescence (AID 1988); assay type: functional, cell-based
[23] = target: Beta-lactamase (Salmonella choleraesuis (strain SC-B67), UniProt Q5J463); assay: Epi-absorbance-based counterscreen for selective VIM-2 inhibitors: dose response biochemical high throughput screening assay to identify inhibitors of TEM-1 serine-beta-lactamase.
Sequence of Beta-lactamase (Salmonella choleraesuis (strain SC-B67), UniProt Q5J463) (Q5J463 whole entry): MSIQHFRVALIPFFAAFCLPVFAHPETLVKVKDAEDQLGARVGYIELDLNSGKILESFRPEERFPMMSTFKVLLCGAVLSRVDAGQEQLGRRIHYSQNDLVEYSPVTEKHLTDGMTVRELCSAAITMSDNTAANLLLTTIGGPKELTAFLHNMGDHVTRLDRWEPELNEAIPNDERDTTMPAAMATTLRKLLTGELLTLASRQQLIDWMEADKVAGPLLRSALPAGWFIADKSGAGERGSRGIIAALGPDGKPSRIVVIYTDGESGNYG

[24] = Luminescence Cell-Based Dose Response HTS to Identify Inhibitors of 5'UTR Stem-Loop Driven Prion Protein mRNA Translation in H4 Neuroglioblastoma Cells. [Related pubchem assays: 1827 (Project Summary), 1813 (Primary HTS)]; assay type: functional
[25] = target: DNA dC->dU-editing enzyme APOBEC-3G (Homo sapiens, UniProt Q9HC16); assay: Dose Response confirmation of small molecule APOBEC3G DNA Deaminase Inhibitors via a fluorescence-based single-stranded DNA deaminase assay. [Related pubchem assays (depositor defined):AID493012, AID493028]; assay type: functional
Sequence of DNA dC->dU-editing enzyme APOBEC-3G (Q9HC16 whole entry): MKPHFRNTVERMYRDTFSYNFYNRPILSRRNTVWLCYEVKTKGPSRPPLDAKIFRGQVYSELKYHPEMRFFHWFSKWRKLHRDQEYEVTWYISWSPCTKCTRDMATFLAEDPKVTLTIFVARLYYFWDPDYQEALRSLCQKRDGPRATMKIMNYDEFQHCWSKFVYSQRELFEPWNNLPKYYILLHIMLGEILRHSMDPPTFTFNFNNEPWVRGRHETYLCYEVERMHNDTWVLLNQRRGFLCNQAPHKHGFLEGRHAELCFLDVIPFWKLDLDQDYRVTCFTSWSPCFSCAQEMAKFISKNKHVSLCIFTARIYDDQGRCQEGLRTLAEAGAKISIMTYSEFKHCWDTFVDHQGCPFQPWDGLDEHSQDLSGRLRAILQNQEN

[26] = inhibitors of firefly luciferase expression or activity, dose response, H4 neuroglioma cells, luminescence (AID 1990); assay type: functional, cell-based
[27] = target: T9, Beta-lactamase (Pseudomonas aeruginosa, UniProt Q79MP6); assay: […] counterscreen for selective VIM-2 inhibitors: dose response biochemical high throughput screening assay to identify inhibitors of IMP-1 metallo-beta-lactamase.
T9 sequence (Q79MP6 whole entry): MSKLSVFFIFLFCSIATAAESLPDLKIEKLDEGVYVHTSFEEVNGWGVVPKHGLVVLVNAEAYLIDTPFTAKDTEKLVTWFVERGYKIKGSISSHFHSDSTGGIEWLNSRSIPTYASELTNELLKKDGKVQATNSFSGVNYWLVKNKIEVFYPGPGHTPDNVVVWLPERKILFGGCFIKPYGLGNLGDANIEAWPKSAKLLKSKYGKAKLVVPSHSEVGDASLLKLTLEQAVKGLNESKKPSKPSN

[28] = target: DNA dC->dU-editing enzyme APOBEC-3A (Homo sapiens, UniProt P31941); assay: APOBEC3A DNA deaminase inhibitors, dose response, biochemical (AID 504722); assay type: functional
Sequence of DNA dC->dU-editing enzyme APOBEC-3A (P31941 whole entry): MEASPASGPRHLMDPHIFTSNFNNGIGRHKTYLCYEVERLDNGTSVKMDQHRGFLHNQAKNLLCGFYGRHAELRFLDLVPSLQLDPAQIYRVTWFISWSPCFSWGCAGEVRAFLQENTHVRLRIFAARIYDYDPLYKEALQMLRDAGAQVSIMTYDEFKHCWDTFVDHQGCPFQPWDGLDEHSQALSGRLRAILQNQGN

[29] = target: T9, Beta-lactamase; assay: IMP-1 metallo-beta-lactamase inhibitors, dose response, selectivity assay for VIM-2 inhibitor project, biochemical, epi-absorbance (AID 1920)

**Q.** Which IC50 [1] does the source give for CCn1cc(C(=O)O)c(=O)c2cc(F)c(N3CCN(C(=S)NC(=O)c4c(OC)cccc4OC)CC3)cc21 here?
**A.** 14 µM (active)

**Q.** Which results are given for COc1cc(OC)c2c(=O)cc(-c3ccccc3)oc2c1 [CHRYSIN DIMETHYL ETHER]?
**A.** IC50 [2]: > 67.6 µM (inactive); IC50 [3]: > 67.6 µM (inactive)

**Q.** For O=C(Nc1ccc(N2CCN(C(=O)c3ccccc3F)CC2)cc1)c1cncc(Br)c1, which IC50 [4] is on record?
**A.** > 79 µM (inactive)

**Q.** And the IC50 [5]?
**A.** 6.77 µM (active)

**Q.** With C[C@@H]1CN([C@@H](C)CO)C(=O)Cc2cc(NS(=O)(=O)c3ccc(Cl)cc3)ccc2O[C@@H]1CN(C)Cc1ccc(Cl)c(Cl)c1 as the compound, how does the AC50 [6] read?
**A.** 5.1 µM (active)

**Q.** With Cc1c(CCC(=O)NCCCN2CCCC2=O)c(=O)oc2cc(O)ccc12 as the compound, how does the AC50 [7] read?
**A.** 30.1 µM (active)

**Q.** For O=C(NC1CCCCC1)C(c1ccccc1)n1c(=O)c(-c2ccco2)nc2ccccc21 (centres undefined), which IC50 [8] is on record?
**A.** 817 nM (active)

**Q.** Which IC50 [9] does the source give for O=C(/C=C/c1ccco1)Nc1ccc(-c2nc3ccccc3[nH]2)cc1 here?
**A.** 14.6 µM (active)

**Q.** And the IC50 [10]?
**A.** 14 µM (inactive)

**Q.** For O=C(c1cccnc1)N1CCN(c2cc(-c3ccccc3)nc3cc(-c4cccc(Cl)c4)nn23)CC1, which EC50 [11] is on record?
**A.** 370 nM (active)

**Q.** And the EC50 [12]?
**A.** 520 nM (active)

**Q.** With COc1cc(C)c2c(c1C=O)Oc1c(c(C)c(O)c3c1C(O)OC3=O)OC2=O (centres undefined) [STICTIC ACID] as the compound, how does the IC50 [13] read?
**A.** > 66.6 µM (inactive)

**Q.** What about the IC50 [14] of the same compound?
**A.** 7.69 µM (active)

**Q.** And the IC50 [15]?
**A.** 27.3 µM (active)

**Q.** What about the AC50 [16] of the same compound?
**A.** 817 nM (active)

**Q.** And the AC50 [17]?
**A.** 44.3 µM (active)

**Q.** And the IC50 [18]?
**A.** 71.2 µM (active)

**Q.** And the AC50 [19]?
**A.** > 70 µM (inactive)

**Q.** With COc1ccccc1S(=O)(=O)N1CC[C@@H]2[C@H](CO)Nc3ccc(-c4ccccc4)cc3[C@@H]21 as the compound, how does the AC50 [20] read?
**A.** 19.3 µM (active)

**Q.** And the AC50 [21]?
**A.** 16.5 µM (active)

**Q.** What does the source list for Sc1nnc(-c2ccccc2)n1C1C=CCCC1 (centres undefined)?
**A.** EC50 [22]: > 120 µM (not active); IC50 [23]: > 59.6 µM (inactive); EC50 [24]: 104 µM (active); IC50 [25]: 5.37 µM (active); EC50 [26]: > 120 µM (not active); IC50 [27]: > 59.6 µM (inactive); IC50 [28]: > 100 µM (inactive); IC50 [29]: > 59.6 µM (inactive)

From ChEMBL document CHEMBL1201862, “PubChem BioAssay data set” (2004)
